Residues, ends and D or L forms follow the SMILES beside them. No end group written: not given here.
Legend:
Format in all cases: cell-based
[1] = test system: MRSA (methicillin-resistant Staphylococcus aureus); conditions: 2 h
Protocol: (§1) The antimicrobial activities of dK1, dK2, dK3, dK4 and dK5 were determined by bactericidal assays on laboratory strains of MRSA (methicillin-resistant Staphylococcus aureus) and MDRAB (multidrug-resistant Acinetobacter baumannii).
(§2) The bacteria were inoculated in Luria broth (LB) solid medium (BioShop Canada Inc., Ontario, Canada) (Focus Bioscience, Murrarrie, Australia). Single colonies were collected and inoculated in 8 mL of liquid medium, and the cultures were incubated overnight at 37° C., 200 rpm. On the next day, the bacterial cultures were centrifuged with a centrifuger (KUBOTA2800, KUBOTA, Osakashi, Japan) at 2500 rpm for 5 minutes at room temperature, and the supernatants were discarded. The pellets were mixed and suspended with 1×PBS (phosphate-buffered saline, PBS, pH 7.4) (PROTECH, Taipei, Taiwan). The step was repeated twice to wash the bacterial cells. After the washing step, the bacterial cells were then re-suspended in 1×PBS, and the concentrations of bacterial cells were adjusted to 1×10^7 CFU/mL.
(§3) In the bactericidal assay, 2700 μL of 1× PBS were mixed with 300 μL 1×10^7 CFU/mL bacteria suspension mentioned as negative control, and each of the solutions of dK1 to dK5 at different concentrations was mixed with 300 μL 1×10^7 CFU/mL bacteria suspension and 2700 μL of 1× PBS. The mixtures were incubated at 37° C., 200 rpm for 2 hours. After incubation, 100 μL of each of the control group samples and the experimental group samples were collected and put in Eppendorf centrifuge tubes, and followed by 10-fold serial dilution with 900 μL of 1× PBS. After the serial dilution, 100 μL of the sample from each group was inoculated on the LB solid medium. The experiments were carried out in triplicate for each group, and the LB solid media with samples were cultured at 37° C. for at least 18 hours. After overnight incubation at 37° C., bacterial colonies were counted. Bacterial survival rates of each group were determined as follows. % survival rate=[(Colonies formed from peptide-treated sample)/(Colonies formed from negative control)]×100%

[2] = test system: MDRAB (multidrug-resistant Acinetobacter baumannii); conditions: MDRAB (multidrug-resistant, 2 h)
Protocol: as §1, §2, §3

in vitro = conditions: human
Protocol: For measuring the cytotoxicity of the antimicrobial peptides dK1, dK2 and dK3, a colorimetric 3-bis-(2-methoxy-4-nitro-5-sulfophenyl)-2H-tetrazolium-5-carboxanilide (XTT) dye reduction assay was employed. The cytotoxicity of the antimicrobial peptides of the invention were tested on Huh-7 and HeLa cells. The culture medium for Huh-7 is Dulbecco's modified eagle medium, DMEM (Gibco™, NY, USA) containing 10% fetal bovine serum (FBS) (Gibco™, NY, USA) 1% non-essential amino acid solution (NEAA) (Biological Industries, Beit HaEmek, Israel) and 1% streptomycin-penicillin solution (Gibco™, NY, USA). The culture medium for HeLa cells is Minimum Essential Medium (MEM) (Gibco™, NY, USA) containing 10% FBS (Gibco™, NY, USA), 1% sodium pyruvate (Gibco™, NY, USA), 1% NEAA (Biological Industries, Beit HaEmek, Israel) and 1% streptomycin-penicillin (Gibco™, NY, USA). […] The absorbance of the samples was measured at the 4th hour, and cell viability calculated to evaluate the cytotoxicity of the antimicrobial peptides. The absorbance of the samples was measured with an ELISA reader (EPOCH™, BioTek instruments, Inc., Winooski, USA) at a wavelength of 475 nm. The absorbance value of the positive control group was regarded as 0% cell viability, and the absorbance value of the negative control group was regarded as 100% cell viability. […]

| Compound | IC50 [1] [nM] | MBC (minimum bactericidal concentration) against MRSA [1] [µM] | IC50 [2] [nM] | MBC (minimum bactericidal concentration) against MDRAB [2] [µM] | cytotoxicity at 4 h, 2 μM (in vitro) [%] |
| --- | --- | --- | --- | --- | --- |
| RPFIVRAWRRAVARRARAILPI [dK3] | 1560 to 3120 | 3.12 to 4.5 | 195 to 390 | 0.78 to 1.56 | 50 |
| RLIAAWRAVIRARVRARRAPIF [dK2] | ~390 | 1.56 to 3.12 | 200 to 250 | 0.5 to 0.6 |  |
| IVRRIWRAWARRVRLVARIPAV [dK1] | ~195 | 0.39 to 0.78 | ~167 | 0.667 to 1.33 |  |
| FLAIPSKPLKVAKPLGFALIIL [dK5] | 10000 to 15000 | 30 to 40 | 20000 to 25000 |  |  |
| CC(C)C[C@H](NC(=O)[C@H](CCCCN)NC(=O)[C@@H]1CCCN1C(=O)CNC(=O)[C@H](Cc1ccccc1)NC(=O)[C@H](CCCCN)NC(=O)[C@H](C)NC(=O)[C@@H]1CCCN1C(=O)[C@H](Cc1ccccc1)NC(=O)[C@H](CO)NC(=O)[C@H](C)NC(=O)[C@@H]1CCCN1C(=O)[C@H](CC(C)C)NC(=O)[C@@H](N)Cc1ccccc1)C(=O)N[C@@H](Cc1ccccc1)C(=O)N[C@@H](CS)C(=O)N[C@@H](CC(C)C)C(=O)N[C@H](C(=O)N[C@H](C(=O)N[C@@H](CCCCN)C(=O)N[C@@H](CCCCN)C(=O)N[C@@H](CS)C(=O)O)[C@@H](C)O)C(C)C [dK4] (H-FLPASFPAKFGPKLFCLVTKKC-OH; N-terminus and C-terminus assumed) |  |  | 8000 to 10000 |  |  |

Source: patent publication US12129279B2, “Antimicrobial peptides and use of the same for treating microbial infections” (TZU CHI UNIVERSITY, priority 2022, dated 2024)
